Experimental data from patent US20240158446A1, “CYCLIC COMPOUND HAVING SELECTIVE INHIBITORY ACTION ON KRAS OVER HRAS AND NRAS” (CHUGAI SEIYAKU KABUSHIKI KAISHA, priority 2021, published 2024).
Like-named read-outs stand apart in the source and are kept apart here. Where a SMILES comes first, the peptide text is derived from it. Bridges are numbered along the chain shown (N, C = ends). [ ]: non-standard residue; d: D form. The star is where a group is joined. hPhe(3,5-F2-4-CF3) = N[C@@H](CCc1cc(F)c(C(F)(F)F)c(F)c1)C(=O)O; NPrPhe(4-CF3) = CCCN[C@@H](Cc1ccc(C(F)(F)F)cc1)C(=O)O; NMeGly(cPent) = CN[C@H](C(=O)O)C1CCCC1; NMeD = CN[C@@H](CC(=O)O)C(=O)O; NMeL = CN[C@@H](CC(C)C)C(=O)O; αMeS = C[C@](N)(CO)C(=O)O; Morpholide = C1CN(*)CCO1; Sar = CNCC(=O)O; tBu = CC(C)(C)*

Legend:
[1] = test system: human lung cancer strain NCI-H441;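 note: cell proliferation inhibition after four days measured by CellTiter-Glo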
[2] = molecular target: GDP-bound NRAS wild-type protein (Homo sapiens, UniProt P01111); test: Binding to NRAS by surface plasmon resonance (SPR), Single Cycle Kinetics; details: SPR, GDP-bound NRAS wild-type protein vs GDP-bound KRAS wild-type protein
Sequence of GDP-bound NRAS wild-type protein (P01111 whole entry): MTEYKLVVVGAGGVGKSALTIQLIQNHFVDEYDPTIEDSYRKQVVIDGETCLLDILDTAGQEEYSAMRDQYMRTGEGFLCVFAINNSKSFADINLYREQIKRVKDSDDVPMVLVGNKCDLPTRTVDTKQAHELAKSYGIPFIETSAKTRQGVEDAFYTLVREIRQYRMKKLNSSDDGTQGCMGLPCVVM

[3] = molecular target: GDP-bound KRAS wild-type protein (Homo sapiens, UniProt P01116); test: Binding to KRAS by surface plasmon resonance (SPR), Single Cycle Kinetics; details: GDP-bound KRAS wild-type protein, read-out: KRAS KD
Sequence of GDP-bound KRAS wild-type protein (P01116 whole entry): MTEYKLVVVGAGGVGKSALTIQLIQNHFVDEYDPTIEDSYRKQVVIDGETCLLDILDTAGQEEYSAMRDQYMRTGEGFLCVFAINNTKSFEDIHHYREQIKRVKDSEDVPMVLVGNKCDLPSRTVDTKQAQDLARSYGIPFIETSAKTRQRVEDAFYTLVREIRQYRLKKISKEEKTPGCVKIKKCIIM

[4] = molecular target: GDP-bound HRAS wild-type protein (Homo sapiens, UniProt P01112); test: Binding to HRAS by surface plasmon resonance (SPR), Single Cycle Kinetics; details: SPR, GDP-bound HRAS wild-type protein vs GDP-bound KRAS wild-type protein
Sequence of GDP-bound HRAS wild-type protein (P01112 whole entry): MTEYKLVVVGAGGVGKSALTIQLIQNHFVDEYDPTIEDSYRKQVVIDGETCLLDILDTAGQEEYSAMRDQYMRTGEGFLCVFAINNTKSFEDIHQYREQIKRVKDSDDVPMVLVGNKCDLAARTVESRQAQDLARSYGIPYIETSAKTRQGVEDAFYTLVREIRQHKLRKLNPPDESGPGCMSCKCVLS

[5] = SPR Single Cycle Kinetics, 1:1 binding model

Structure (SMILES) | IC50 [1] | Kd [3, 5] | Kd ([3]; SPR, Single Cycle Kinetics) | NRAS/KRAS (ratio of KD value with respect to NRAS to KD value with respect to KRAS) [2] | HRAS/KRAS (ratio of KD value with respect to HRAS to KD value with respect to KRAS) [4] | NRAS/KRAS (ratio of KD value for NRAS to KD value for KRAS) [2] | HRAS/KRAS (ratio of KD value for HRAS to KD value for KRAS) [4]
CCCN1C(=O)CN(C)C(=O)CN(C)C(=O)[C@H]([C@@H](C)CC)NC(=O)[C@H](CC(C)C)N(C)C(=O)C[C@@H](C(=O)N2CCOCC2)N(C)C(=O)[C@H](C2CCCC2)N(C)C(=O)[C@](C)(COC(C)(C)C)NC(=O)[C@@H]2CCCN2C(=O)[C@H](CCc2cc(F)c(C(F)(F)F)c(F)c2)NC(=O)CN(C)C(=O)[C@@H]1Cc1ccc(C(F)(F)F)cc1 [PP0764] ([NMeL]I[Sar][Sar][NPrPhe(4-CF3)][Sar][hPhe(3,5-F2-4-CF3)]P[αMeS](tBu)[NMeGly(cPent)][NMeD]-Morpholide; lactam N-11) | 0.215 µM | 0.0034 µM | – | B (a compound having 3 or more and less than 10 is denoted as B) | B (a compound having 3 or more and less than 10 is denoted as B) | – | –
CCO[C@@H]1C[C@H]2C(=O)NC3(CCCC3)C(=O)N(C)[C@@H](C3CCCC3)C(=O)N(C)[C@H](C(=O)N3CCOCC3)CC(=O)N(C)[C@@H](COC)C(=O)N[C@@H]([C@@H](C)CC)C(=O)N3CC[C@H]3C(=O)N(C)[C@H]3CCCCCN(C3=O)[C@@H](Cc3ccc(C(F)(F)F)cc3)C(=O)N(C)CC(=O)N[C@@H](CCc3cc(F)c(C(F)(F)F)c(F)c3)C(=O)N2C1 [PP0867] | 0.206 µM | – | 0.0012 µM | – | – | B (a compound having 3 or more and less than 10 is denoted as B) | B (a compound having 3 or more and less than 10 is denoted as B)

Compounds with a lower IC50 [1], results first:

IC50 [1] | Kd [3, 5] | Kd ([3]; SPR, Single Cycle Kinetics) | Structure (SMILES) | NRAS/KRAS (ratio of KD value with respect to NRAS to KD value with respect to KRAS) [2] | HRAS/KRAS (ratio of KD value with respect to HRAS to KD value with respect to KRAS) [4] | NRAS/KRAS (ratio of KD value for NRAS to KD value for KRAS) [2] | HRAS/KRAS (ratio of KD value for HRAS to KD value for KRAS) [4]
0.0301 µM | 0.00073 µM | – | CCCN1C(=O)CN(C)C(=O)CN(C)C(=O)[C@H]([C@@H](C)CC)NC(=O)[C@H](CC(C)C)N(C)C(=O)C[C@@H](C(=O)N2CCOCC2)N(C)C(=O)[C@H](C2CCCC2)N(C)C(=O)[C@](C)(COC)NC(=O)[C@@H]2CCCN2C(=O)[C@H](CCc2cc(F)c(C(F)(F)F)c(F)c2)NC(=O)CN(C)C(=O)[C@@H]1Cc1ccc(C(F)(F)F)cc1 [PP0762] ([NMeL]I[Sar][Sar][NPrPhe(4-CF3)][Sar][hPhe(3,5-F2-4-CF3)]P[αMeS](Me)[NMeGly(cPent)][NMeD]-Morpholide; lactam N-11) | B (a compound having 3 or more and less than 10 is denoted as B) | B (a compound having 3 or more and less than 10 is denoted as B) | – | –
0.143 µM | – | 0.0011 µM | CC[C@H](C)[C@@H]1NC(=O)[C@H](COC)N(C)C(=O)C[C@@H](C(=O)N2CCOCC2)N(C)C(=O)[C@H](C2CCCC2)N(C)C(=O)C2(CCC2)NC(=O)[C@@H]2CCCN2C(=O)[C@H](CCc2cc(F)c(C(F)(F)F)c(F)c2)NC(=O)CN(C)C(=O)[C@H](Cc2ccc(C(F)(F)F)cc2)N2CCCCC[C@@H](C2=O)N(C)C(=O)CNC1=O [PP0860] | – | – | B (a compound having 3 or more and less than 10 is denoted as B) | B (a compound having 3 or more and less than 10 is denoted as B)
0.0811 µM | – | 0.0011 µM | CCO[C@@H]1C[C@H]2C(=O)NC3(CCCC3)C(=O)N(C)[C@@H](C3CCCC3)C(=O)N(C)[C@H](C(=O)N3CCOCC3)CC(=O)N(C)[C@@H](COC)C(=O)N[C@@H]([C@@H](C)CC)C(=O)NCC(=O)N(C)[C@H]3CCCCCN(C3=O)[C@@H](Cc3ccc(C(F)(F)F)cc3)C(=O)N(C)CC(=O)N[C@@H](CCc3cc(F)c(C(F)(F)F)c(F)c3)C(=O)N2C1 [PP0862] | – | – | B (a compound having 3 or more and less than 10 is denoted as B) | B (a compound having 3 or more and less than 10 is denoted as B)
